{
  "source": "patent US7537887B2",
  "about": "“Net, a transcription factor of the TCF family, as regulator of angiogenic factor expression” (Aventis Pharma S.A., priority 2000, dated 2009)",
  "molecules": {"B1": {"name": "VEGFa: recombinant human VEGF-A (R&D) (protein)", "chain": "APTTEGEQKSHEVIKFMDVYQRSYCRPIETLVDIFQEYPDEIEYIFKPSCVPLMRCAGCCNDEALECVPTSESNITMQIMRIKPHQSQHIGEMSFLQHSRCECRPKKDRTKPENHCEPCSERRKHLFVQDPQTCKCSCKNTDSRCKARQLELNERTCRCDKPRR"}},
  "key": {"Net": {"test_system": "Net", "settings": "inhibitor 10 μM for 30 min; FIG. 3 lanes 3, 4", "protocol": "NIH3T3 cells were transfected as described above with the control vector for GPCR (pCEFL) or the vector for GPCR ([…]). 14 hours later, cells were washed and left in the growth medium for 2.5 hours. The cells were then treated with SB 203580 (10 μM) (Alexis Corp.) or U0126 (10 μM) (Promega) for 30 min. After 6 hours, extracts were analysed by SDS-PAGE and Western-blotting with antibodies against phospho-serine 365 Net (antibody 2F3, Ducret et al. (Oncogene, in press) or activated ERK (Promega).\nPhosphorylation of endogenous Net was followed with a phospho-specific antibody that recognises phospho-serine 365, which is important for phosphorylation induced activation of Net by ERK and p38 signalling cascades.\nNIH3T3 cells were transfected as described above with the control vector for GPCR (pCEFL) or the vector for GPCR (pCEFL-GPCR). 14 hours later, cells were washed and left in the growth medium for 2.5 hours. The cells were then treated with SB 203580 (10 μM) (Alexis Corp.) or U0126 (10 μM) (Promega) for 30 min. After 6 hours, extracts were analysed by SDS-PAGE and Western-blotting with antibodies against phospho-serine 365 Net [Antibody 2F3 , Giovane et al. (Genomics (1995) 29:769-72)] or activated ERK (Promega)."}, "ERK": {"test_system": "ERK", "test": "ERK activation in GPCR-transfected NIH3T3 cells (Western blot, activated ERK antibody)", "assay_type": "cell-based", "settings": "10 μM; FIG. 3", "excerpt": "FIG. 3: Phosphorylation of endogenous Net."}, "NES binding to CRM1": {"biological_target": "NES binding to CRM1 (Homo sapiens, UniProt O14980)", "sequence (O14980 whole entry)": "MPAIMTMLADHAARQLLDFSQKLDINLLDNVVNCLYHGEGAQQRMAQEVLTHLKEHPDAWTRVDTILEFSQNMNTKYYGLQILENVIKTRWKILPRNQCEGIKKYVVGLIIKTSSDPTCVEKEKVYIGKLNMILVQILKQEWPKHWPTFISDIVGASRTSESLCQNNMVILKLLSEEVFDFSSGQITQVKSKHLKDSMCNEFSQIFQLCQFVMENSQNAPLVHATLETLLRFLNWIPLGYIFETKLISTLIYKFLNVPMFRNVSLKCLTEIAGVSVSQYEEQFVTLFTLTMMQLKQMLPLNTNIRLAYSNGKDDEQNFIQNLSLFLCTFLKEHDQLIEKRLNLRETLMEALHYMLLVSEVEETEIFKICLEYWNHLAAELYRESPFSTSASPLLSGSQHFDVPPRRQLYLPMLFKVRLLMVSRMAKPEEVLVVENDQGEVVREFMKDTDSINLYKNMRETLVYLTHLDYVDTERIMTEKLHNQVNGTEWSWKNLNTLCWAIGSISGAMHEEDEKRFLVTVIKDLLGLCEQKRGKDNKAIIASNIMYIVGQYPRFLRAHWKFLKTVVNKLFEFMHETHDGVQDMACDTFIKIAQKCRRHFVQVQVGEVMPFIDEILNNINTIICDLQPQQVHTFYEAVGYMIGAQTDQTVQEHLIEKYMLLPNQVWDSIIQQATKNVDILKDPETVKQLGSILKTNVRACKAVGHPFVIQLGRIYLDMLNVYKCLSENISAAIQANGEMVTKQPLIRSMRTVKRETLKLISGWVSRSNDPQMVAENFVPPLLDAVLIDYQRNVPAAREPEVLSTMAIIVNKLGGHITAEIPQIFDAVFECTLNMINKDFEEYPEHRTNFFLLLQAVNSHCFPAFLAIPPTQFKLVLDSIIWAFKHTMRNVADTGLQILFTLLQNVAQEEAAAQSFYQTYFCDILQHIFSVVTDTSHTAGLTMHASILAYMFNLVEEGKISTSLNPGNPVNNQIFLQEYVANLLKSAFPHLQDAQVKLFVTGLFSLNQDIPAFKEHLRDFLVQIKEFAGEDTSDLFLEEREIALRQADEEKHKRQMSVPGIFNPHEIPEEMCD", "settings": "cited from earlier work"}, "HUVEC cells": {"test_system": "HUVEC cells", "test": "Microtubule formation by HUVEC cells on Matrigel induced by conditioned media from transfected NIH3T3 cells", "assay_type": "cell-based", "settings": "10 ng/ml recombinant human VEGF added to conditioned medium; FIG. 1d, 1f", "protocol": "FIG. 1: Microtubule formation by HUVEC cells on Matrigel induced by conditioned media from differentially transfected NIH3T3 cells. NIH3T3 cells were transfected by pCEFL-GPCR alone (FIG. 1a); pCEFL-GPCR with p601D-antisense-Net (FIG. 1c) or p601D-transdominant-Net (FIG. e). Before incubation with HUVEC cells, some of the conditioned media were incubated with either: (b) 0.2 μg/ml of anti-mouse-VEGF polyclonal antibody (total goat IgG; R&D SYSTEMS) or with (d and f) 10 ng/ml of recombinant human VEGF-A (R&D). The plates were observed after 24 hours (phase contrast, original magnification, ×40).\na. NIH3T3 cells (C11) were transfected by the calcium phosphate technique with pCEFL-KSHVGPCR (mouse EF12 promoter) and the AntiNet expression vector or the corresponding empty vector (p601D: Beddinton et al.1989,Development 106:37-46). 16 hours after applying the precipitate, the cells were washed twice with DMEM, incubated in DMEM with 0,05% FCS for 48 hours. The medium was collected and either tested immediately or stored at −80° C.\nb. HUVEC cells (passage 4-6) were grown in DMEM/F12K containing 10% FCS, Heparine (50 ng/mnl), ECGF(Endothelial Cell Growth Factor, Sigma, 50 ng/ml) and Glutamine (2 mM).\nc. The wells of 24-multiwell plates were coated with […] of Growth Factor Reduced MATRIGEL Matrix (Collaborative Biomedical Products) at 4° C. and incubated for 30 min at 37° C.\nd. […]"}},
  "data": [
    {"molecule": "C[S+]([O-])c1ccc(-c2nc(-c3ccncc3)c(-c3ccc(F)cc3)[nH]2)cc1", "note": "(centres unmarked) [SB 203580, 4-[5-(4-fluorophenyl)4-4-(pyridinyl)-1H-imidazol-2-yl]phenyl methyl sulfoxide]", "values": [
      {"measurement": "GPCR induced phosphorylation of Net (phospho-serine 365)", "setting": "Net", "result": "induction was dependent on both the p38 and ERK pathways"},
      {"measurement": "ERK activation", "setting": "ERK", "result": "did not inhibit ERK activation"}
    ]},
    {"molecule": "N#CC(=C(N)Sc1ccccc1N)C(C#N)=C(N)Sc1ccccc1N", "note": "[U 0126, 1,4-diamino-2,3-dicyano-1,4 bis[2-aminophenylthio]butadiene]", "values": [
      {"measurement": "GPCR induced phosphorylation of Net (phospho-serine 365)", "setting": "Net", "result": "induction was dependent on both the p38 and ERK pathways"}
    ]},
    {"molecule": "CCC(=C/[C@H](C)C/C=C/C(C)=C/[C@@H](C)C(=O)[C@@H](C)[C@H](O)[C@@H](C)C/C(C)=C/C(=O)O)/C=C/[C@@H]1OC(=O)C=C[C@@H]1C", "note": "[leptomycin B]", "values": [
      {"measurement": "active nuclear export of the Net protein induced by the JNK pathway", "setting": "NES binding to CRM1", "result": "inhibited"}
    ]},
    {"molecule": "B1", "values": [
      {"measurement": "microtubule inducing activity of conditioned medium from Net down-regulated GPCR cells after adding VEGFa", "setting": "HUVEC cells", "result": "restored microtubule inducing activity"}
    ]}
  ]
}
